Assay results from US20110294732A1, “ERYTHROPOLETIN COMPLEMENTATION OR REPLACEMENT” (Universite De Strasbourg, priority 2007, published 2011).

Key:
circulating RBC = assay: P50 shift of circulating RBC after oral administration in drinking water; format: in vivo, C57BL/6 mice
Protocol: In experiments conducted in vivo in which ITPP was administered orally, ITPP was dissolved in drinking (not deionized) water at a 20 g/L-concentration (=27 mM, pH 7.0) and offered for drinking ad libitum. A significant shift of the P50 value of circulating RBCs was observed.
Twelve C57BL/6 mice drank ITPP over 4 days (about 25 ml/24 hrs). Seven Control mice drank either pure water (three mice), or a solution of IHP (inositol hexaphosphate without the internal pyrophosphate rings) at the same concentration and pH as ITPP (4 mice). […] Blood was collected from the tail vein of the 12 C57BL/6 mice on day 0 (before treatment started), 1, 2, 4, 6, 7, 8, 10, 11 and 12, in order to measure P50 values. […] Oral application of ITPP caused significant right shifts of P50 (up to 31%) in mice.
The 12 mice were observed over 12 days, the P50 values of their circulating RBC were measured almost daily. […] It appears that all mice ingesting the aqueous solution of ITPP present a shift of the P50 value of their circulating RBC, albeit with individual differences. FIG. 8 illustrates the individual differences in the P50 shift induced in the mice by ingestion of the aqueous solution of ITPP.

[1] = Blood counts of mice after oral ingestion; format: in vivo; settings: single mouse, oral in water for 4 days, day 7; day 0 count 8.9-11.8
Source text: Blood from mice that ingested ITPP or IHP in water (for 4 days) or water only was collected on day 0, 7 and 11, in order to assess any differences in the blood count (and the amount of erythropoietin in the sera) of treated and control mice. […] The amount of blood from the other mice was not sufficient to determine the blood count.

hemoglobin [2] = biological target: T1, hemoglobin (Homo sapiens, UniProt P68871); settings: relative to DPG; cited from earlier work
T1 sequence (P68871 2-147 limits assumed): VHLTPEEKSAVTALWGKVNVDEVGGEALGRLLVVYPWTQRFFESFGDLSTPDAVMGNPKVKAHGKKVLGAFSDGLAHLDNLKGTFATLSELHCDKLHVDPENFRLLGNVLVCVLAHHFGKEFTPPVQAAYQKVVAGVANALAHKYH
T1 sequence (P69905 2-142 partner limits assumed): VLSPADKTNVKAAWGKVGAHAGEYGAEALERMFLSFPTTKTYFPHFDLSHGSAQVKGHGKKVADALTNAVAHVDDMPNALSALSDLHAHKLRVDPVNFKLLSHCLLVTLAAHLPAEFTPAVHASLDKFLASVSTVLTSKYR

hemoglobin [3] = biological target: T1, hemoglobin; settings: pH 7.4 and 37 degrees C; cited from earlier work
[4] = Blood counts of mice after oral ingestion; format: in vivo; settings: single mouse, oral in water for 4 days; day 0 count 8.9-11.8
Solubility of ITPP salts = format: physicochemical
Source text: (§1) Alternatively, ITPP-Ca can be produced by the addition of equimolar amounts of CaCl2 with an aqueous solution of ITPP-Na. The resulting mixture gives ITPP-Ca, which contains NaCl as an impurity.

Toxicity of ITPP salts = settings: compared with the calcium salt / mixed salt
Source text: as §1

In the case of `O=P(O)(O)O[C@H]1[C@H](OP(=O)(O)O)[C@@H](OP(=O)(O)O)[C@H](OP(=O)(O)O)[C@@H](OP(=O)(O)O)[C@H]1OP(=O)(O)O` [IHP, Inositol hexaphosphate, reference compound], the “right shift of P50” value (circulating RBC; oral, 20 g/L (27 mM) in drinking water over 4 days) is reported as “complete absence of shift”, the “P50 day 7, %” value (circulating RBC; single mouse, oral in water for 4 days, day 7) is reported as 3% and the “P50 day 10, %” value (circulating RBC; single mouse, oral in water for 4 days, day 10) is reported as 0%. For the same molecule, the “RBC × 10^6/mm^3 (day 7)” value [1] was 9.6 10^6/mm^3, the “affinity to hemoglobin, higher than DPG” value (hemoglobin [2]) was 1000 fold and the “P50 of hemoglobin increased up to” value (hemoglobin [3]) was at most 96.4 mm Hg. The “RBC × 10^6/mm^3” value [4] was 10.77 10^6/mm^3.
In the case of `O=P1([O-])OC2C3OP(=O)([O-])OP(=O)([O-])OC3C3OP(=O)([O-])OP(=O)([O-])OC3C2OP(=O)([O-])O1.[Ca+2].[Ca+2].[Ca+2]` (stereo not drawn) [pure calcium salt of ITPP, Calcium Salt of myo-inositol 1,6:2,3:4,5-tripyrophosphate], the solubility (Solubility of ITPP salts) is reported as “relatively insoluble”.
With `O=P1([O-])OC2C3OP(=O)([O-])OP(=O)([O-])OC3C3OP(=O)([O-])OP(=O)([O-])OC3C2OP(=O)([O-])O1.[Na+].[Na+].[Na+].[Na+].[Na+].[Na+]` (stereo not drawn) [pure sodium salt, myo-inositol tripyrophosphate] the toxicity (Toxicity of ITPP salts) was “relatively more toxic”.
